Laboratory results reported in patent US20260265259A1, “SUBSTITUTED 6-IMIDAZOPYRIDAZINE IL-17A MODULATORS AND USES THEREOF” (DICE ALPHA, INC., priority 2023, published 2026).

test system: IL-17A/A; test: IL-17A/A HEK-Blue cell assay; format: cell-based; conditions: HEK-Blue, 20 h, IL-17A/A inhibition, HEK-Blue IL-17A reporter cell line, IL17A/A 5 ng/mL, SEAP read at A630, read-out: AA IC50
Protocol: The HEK-Blue IL-17A reporter cell line (Fisher #NC1408637) was used for cell-based IL-17A/A inhibition assays. Cells were grown and prepared for assays according to the manufacturer's instructions. This cell line consists of HEK 293 cells that were designed to expressed IL-17RA, IL-17RC, and the Act1 adapter molecule, the combination of which, when stimulated by IL-17A/A or IL17A/F activates a NFκB promoter and drives expression of the recombinant Secreted Alkaline Phosphatase (SEAP) gene. Media from the cells is then added to a development reagent (Quanti-Blue Substrate, Fisher #NC9711613), and read at A630.
Compounds were dispensed in DMSO to an empty clear 384-well tissue culture plate in a titration ranging from 10 μM to 27 pM, with DMSO added to every well to a final concentration of 0.1%. Cells were then added to the plate (45 μL/well at a concentration of 280,000 cells/mL). IL17A/A (Genscript #Z03228) or IL17A/F (R&D Systems) was added to the plate to a final concentration of 5 ng/mL and a final well volume of 50 μL. The cells, compound, and IL-17A/A or IL17A/F were then incubated for 20 hours before media was removed for SEAP analysis. The resulting inhibition curve was then analyzed using Dotmatics' integrated 4-parameter fit screening protocol to generate IC50 values.

`O=C(N[C@H](c1cn2nc(C[C@H]3C[C@@H](C(F)(F)F)CNC3=O)c(N3CCOCC3)cc2n1)[C@@H]1CCCC(F)(F)C1)c1nonc1C1CC1` [Compound 30] and `O=C(N[C@H](c1cn2nc(C[C@H]3C[C@@H](C(F)(F)F)CNC3=O)c(N3CCOCC3)cc2n1)C1CCC(F)(F)CC1)c1nonc1C1CC1` [Compound 16] cannot be ordered by IC50: < 100 nM for the first, < 100 nM for the second.

`CCn1nccc1C(=O)N[C@H](c1cn2nc(C[C@@H]3C[C@H](C)CNC3=O)c(C3CCOCC3)cc2n1)C1CCC(F)(F)CC1` [Compound 103, N—((1S)-(4,4-difluorocyclohexyl)(6-(((5S)-5-methyl-2-oxopiperidin-3-yl)methyl)-7-(tetrahydro-2H-pyran-4-yl)imidazo[1,2-b]pyridazin-2-yl)methyl)-1-ethyl-1H-pyrazole-5-carboxamide] and `CCn1nccc1C(=O)N[C@H](c1cn2nc(C[C@H]3C[C@@H](C(F)(F)F)CNC3=O)c(C3CCOCC3)cc2n1)C1CCC(F)(F)CC1` [Compound 21, N—((S)-(4,4-difluorocyclohexyl)(6-(((3R,5R)-2-oxo-5-(trifluoromethyl)piperidin-3-yl)methyl)-7-(tetrahydro-2H-pyran-4-yl)imidazo[1,2-b]pyridazin-2-yl)methyl)-1-ethyl-1H-pyrazole-5-carboxamide] cannot be ordered by IC50: < 100 nM for the first, < 100 nM for the second.

Compared with `CCn1nccc1C(=O)N[C@H](c1cn2nc(C[C@H]3C[C@@H](C(F)(F)F)CNC3=O)c(N3CCN(C)C4(CC4)C3)cc2n1)C1CCC(F)(F)CC1` [Compound 82], `CCn1nccc1C(=O)N[C@H](c1cn2nc(C[C@@H]3C[C@@H](C(F)(F)F)CNC3=O)c(N3CCC3)cc2n1)C1CCC(F)(F)CC1` [Compound 24] is higher in IC50: < 100 nM for the first, > 1000 nM for the second. The first is the more potent here.

`O=C(N[C@H](c1cn2nc(C[C@H]3C[C@@H](C(F)(F)F)CNC3=O)c(C3CCOC3)cc2n1)[C@@H]1CCCC(F)(F)C1)c1nonc1C1CC1` (stereo partly shown) [Compound 70] and `O=C(N[C@H](c1cn2nc(C[C@H]3C[C@@H](C(F)(F)F)CNC3=O)c(C3CCOC3)cc2n1)C1CCC(F)(F)CC1)c1nonc1C1CC1` (single isomer, unassigned) [Compound 45] cannot be ordered by IC50: < 100 nM for the first, < 100 nM for the second.

`CCn1nccc1C(=O)N[C@H](c1cn2nc(C[C@H]3C[C@@H](C(F)(F)F)CNC3=O)c(CN3CC(F)(F)C3)cc2n1)C1CCC(F)(F)CC1` [Compound 109, N—((S)-(7-((3,3-difluoroazetidin-1-yl)methyl)-6-(((3R,5R)-2-oxo-5-(trifluoromethyl)piperidin-3-yl)methyl)imidazo[1,2-b]pyridazin-2-yl)(4,4-difluorocyclohexyl)methyl)-1-ethyl-1H-pyrazole-5-carboxamide] and `CCn1nccc1C(=O)N[C@H](c1cn2nc(C[C@H]3C[C@@H](C(F)(F)F)CNC3=O)c(CNC)cc2n1)C1CCC(F)(F)CC1` [Compound 112, N—((S)-(4,4-difluorocyclohexyl)(7-((methylamino)methyl)-6-(((3R,5R)-2-oxo-5-(trifluoromethyl)piperidin-3-yl)methyl)imidazo[1,2-b]pyridazin-2-yl)methyl)-1-ethyl-1H-pyrazole-5-carboxamide] cannot be ordered by IC50: < 100 nM for the first, < 100 nM for the second.

`CCn1nccc1C(=O)N[C@H](c1cn2nc(C[C@H]3C[C@@H](C(F)(F)F)CNC3=O)c(N3CCCC3)cc2n1)C1CCC(F)(F)CC1` [Compound 22] and `CCn1nccc1C(=O)N[C@H](c1cn2nc(CC3C[C@@H](C(F)(F)F)CNC3=O)c(N3CCOCC3)cc2n1)C1CCC(F)(F)CC1` (stereo partly shown) [Compound 14] cannot be ordered by IC50: < 100 nM for the first, < 100 nM for the second.

`CCn1nccc1C(=O)N[C@H](c1cn2nc(C[C@H]3C[C@@H](C(F)(F)F)CNC3=O)c(C3CCOCC3)cc2n1)[C@H]1CCCC(F)(F)C1` [Compound 55] and `CCn1nccc1C(=O)N[C@H](c1cn2nc(C[C@H]3C[C@@H](C(F)(F)F)CNC3=O)c(C3CCCOC3)cc2n1)[C@@H]1CCCC(F)(F)C1` (stereo partly shown) [Compound 64] cannot be ordered by IC50: < 100 nM for the first, < 100 nM for the second.

Compared with `CCn1nccc1C(=O)N[C@H](c1cn2nc(C[C@H]3C[C@@H](C(F)(F)F)CNC3=O)c(N3CC4(COC4)C3)cc2n1)C1CCC(F)(F)CC1` [Compound 43], `CCn1nccc1C(=O)N[C@H](c1cn2nc(C[C@H]3C[C@@H](C(F)(F)F)CNC3=O)c(N3CCC4(COC4)C3)cc2n1)C1CCC(F)(F)CC1` [Compound 49] is lower in IC50: 100 to 1000 nM for the first, < 100 nM for the second. The second is the more potent here.

`CCn1nccc1C(=O)N[C@H](c1cn2nc(C[C@H]3C[C@@H](C(F)(F)F)CNC3=O)c(N3CCC(F)(F)CC3)cc2n1)C1CCC(F)(F)CC1` [Compound 19] and `CCn1nccc1C(=O)N[C@H](c1cn2nc(C[C@H]3C[C@@H](C(F)(F)F)CNC3=O)c(N3CCC(OC)C3)cc2n1)C1CCC(F)(F)CC1` (stereo partly shown) [Compound 77] cannot be ordered by IC50: < 100 nM for the first, < 100 nM for the second.

`CCn1nccc1C(=O)N[C@H](c1cn2nc(C[C@H]3C[C@@H](C(F)(F)F)CNC3=O)c(C3CCOC(C)(C)C3)cc2n1)C1CCC(F)(F)CC1` (stereo partly shown) [Compound 87] and `CCn1nccc1C(=O)N[C@H](c1cn2nc(C[C@H]3C[C@@H](C(F)(F)F)CNC3=O)c(C3CCCO3)cc2n1)C1CCC(F)(F)CC1` (stereo partly shown) [Compound 83] cannot be ordered by IC50: < 100 nM for the first, < 100 nM for the second.

First: CC(C)n1nccc1C(=O)N[C@H](c1cn2nc(C[C@H]3C[C@@H](C(F)(F)F)CNC3=O)c(C3CCOCC3)cc2n1)C1CCC(F)(F)CC1 [Compound 75]
Second: CCn1nccc1C(=O)N[C@H](c1cn2nc(C[C@H]3C[C@@H](C(F)(F)F)CNC3=O)c(C3CCN(C)CC3)cc2n1)C1CCC(F)(F)CC1 [Compound 60]
The IC50 of the first is lower: < 100 nM for the first, 100 to 1000 nM for the second.

First: O=C(N[C@H](c1cn2nc(C[C@@H]3C[C@H](C(F)(F)F)CNC3=O)c(N3CCOCC3)cc2n1)C1CCC(F)(F)CC1)c1nonc1C1CC1 [Compound 39]
Second: O=C(N[C@H](c1cn2nc(C[C@@H]3C[C@@H](C(F)(F)F)CNC3=O)c(N3CCOCC3)cc2n1)C1CCC(F)(F)CC1)c1nonc1C1CC1 [Compound 17]
The IC50 of the first is higher: > 1000 nM for the first, 100 to 1000 nM for the second.

`CCn1nccc1C(=O)N[C@H](c1cn2nc(C[C@H]3C[C@@H](C(F)(F)F)CNC3=O)c(N3CC4CCC(C3)O4)cc2n1)C1CCC(F)(F)CC1` [Compound 50] and `CCn1nccc1C(=O)N[C@H](c1cn2nc(C[C@H]3C[C@@H](C(F)(F)F)CNC3=O)c(N3CC4CC(C3)O4)cc2n1)C1CCC(F)(F)CC1` [Compound 35] cannot be ordered by IC50: < 100 nM for the first, < 100 nM for the second.

Compared with `CCn1nccc1C(=O)N[C@H](c1cn2nc(C[C@H]3C[C@@H](C(F)(F)F)CNC3=O)c(CNCC(F)(F)F)cc2n1)C1CCC(F)(F)CC1` [Compound 115, N—((S)-(4,4-difluorocyclohexyl)(6-(((3R,5R)-2-oxo-5-(trifluoromethyl)piperidin-3-yl)methyl)-7-(((2,2,2-trifluoroethyl)amino)methyl)imidazo[1,2-b]pyridazin-2-yl)methyl)-1-ethyl-1H-pyrazole-5-carboxamide], `CCn1nccc1C(=O)N[C@H](c1cn2nc(C[C@H]3C[C@@H](C(F)(F)F)CNC3=O)c(C3COCCO3)cc2n1)C1CCC(F)(F)CC1` (stereo partly shown) [Compound 94] is higher in IC50: < 100 nM for the first, 100 to 1000 nM for the second.

`CC(C)n1nccc1C(=O)N[C@H](c1cn2nc(C[C@H]3C[C@@H](C(F)(F)F)CNC3=O)c(N3CCOCC3)cc2n1)[C@@H]1CCCC(F)(F)C1` [Compound 28] and `CCn1nccc1C(=O)N[C@H](c1cn2nc(C[C@H]3C[C@@H](C(F)(F)F)CNC3=O)c(N3CCOCC3)cc2n1)[C@@H]1CCCC(F)(F)C1` [Compound 26] cannot be ordered by IC50: < 100 nM for the first, < 100 nM for the second.

`CCn1nccc1C(=O)N[C@H](c1cn2nc(C[C@H]3C[C@@H](C(F)(F)F)CNC3=O)c(C3CCCOC3)cc2n1)[C@H]1CCCC(F)(F)C1` (stereo partly shown) [Compound 63] and `O=C(N[C@H](c1cn2nc(C[C@H]3C[C@@H](C(F)(F)F)CNC3=O)c([C@H]3CCOC3)cc2n1)C1CCC(F)(F)CC1)c1nonc1C1CC1` [Compound 44] cannot be ordered by IC50: < 100 nM for the first, < 100 nM for the second.

same assay, conditions: IL-17A/A inhibition, HEK-Blue IL-17A reporter cell line, IL17A/A 5 ng/mL, 20 hours, SEAP read at A630; read-out: AA IC50

First: CCn1nccc1C(=O)N[C@H](c1cn2nc(C[C@H]3C[C@@H](C(F)(F)F)CNC3=O)c(C3CCCCO3)cc2n1)C1CCC(F)(F)CC1 (stereo partly shown) [Compound 85]
Second: CCn1nccc1C(=O)N[C@H](c1cn2nc(C[C@H]3C[C@@H](C(F)(F)F)CNC3=O)c(C3CCCOC3)cc2n1)C1CCC(F)(F)CC1 (stereo partly shown) [Compound 2]
The IC50 of the first is lower: < 100 nM for the first, 100 to 1000 nM for the second.

`CCn1nccc1C(=O)N[C@H](c1cn2nc(C[C@H]3C[C@@H](C(F)(F)F)CNC3=O)c(C3CCCOC3)cc2n1)[C@H]1CCCC(F)(F)C1` (stereo partly shown) [Compound 65] and `CCn1nccc1C(=O)N[C@H](c1cn2nc(C[C@H]3C[C@@H](C(F)(F)F)CNC3=O)c(C3CCCOC3)cc2n1)C1CCC(F)(F)CC1` (stereo partly shown) [Compound 12] cannot be ordered by IC50: < 100 nM for the first, < 100 nM for the second.

`CCn1nccc1C(=O)N[C@H](c1cn2nc(C[C@H]3C[C@@H](C(F)(F)F)CNC3=O)c(N3CC4CC3CO4)cc2n1)C1CCC(F)(F)CC1` (stereo partly shown) [Compound 52] and `CCn1nccc1C(=O)N[C@H](c1cn2nc(C[C@H]3C[C@@H](C(F)(F)F)CNC3=O)c(N3CCOC(C)C3)cc2n1)C1CCC(F)(F)CC1` (stereo partly shown) [Compound 34] cannot be ordered by IC50: < 100 nM for the first, < 100 nM for the second.

Compared with `O=C(N[C@H](c1cn2nc(C[C@H]3C[C@@H](C(F)(F)F)CNC3=O)c(C3CCOC3)cc2n1)[C@@H]1CCCC(F)(F)C1)c1nonc1C1CC1` (stereo partly shown) [Compound 74], `CCn1nccc1C(=O)N[C@H](c1cn2nc(C[C@H]3C[C@@H](C(F)(F)F)CNC3=O)c(C3CCN(C)C3)cc2n1)C1CCC(F)(F)CC1` (stereo partly shown) [Compound 62] is higher in IC50: < 100 nM for the first, 100 to 1000 nM for the second.
